Measured values reported in patent US12371421B2, “Solid forms of a PARP7 inhibitor” (Ribon Therapeutics, Inc., priority 2019, dated 2025).

Experiments:
[1] = tested on: NCI-H1373 lung cancer xenograft; test: Tumor growth in human NCI-H1373 lung cancer xenograft; assay type: in vivo, SCID mice
Protocol: For the NCI-H1373 study, SCID mice were inoculated subcutaneously in the right flank with NCI-H1373 cells for tumor development. After 5 days of tumor growth, mice with 89-148 mm^3 tumors were randomized into treatment groups with mean tumor volumes of 121 mm^3. […] Tumor volumes were determined by manual calipers every 2-3 days. Mean tumor volume and SEM are plotted. QD: once a day; PO: per oral administration. Statistical significance is calculated using two-way ANOVA followed by Bonferroni post-tests in which the treatment groups were compared to vehicle control (****P<0.0001).

LN-18 = test: Cancer cell growth inhibition (CellTiter-Glo); assay type: cell-based; settings: Homo sapiens; LN-18, glioblastoma; 144 hours
Protocol: (§1) Cells were plated into 384-well plates at a pre-specified density in fetal bovine serum-containing media. Cells were treated with compound or vehicle (DMSO) 24 hrs later, and a day zero plate was collected for analysis. Test compound plates were incubated continuously for 144 hours before cells and cell growth was assessed using a luminescent cell viability assay (CellTiter-Glo, Promega). The GI50 was determined by correcting for the cell count at time zero (time of treatment) and plotting data as percent growth relative to vehicle-treated cells.

KMBC-2 = test: Cancer cell growth inhibition (CellTiter-Glo); assay type: cell-based; settings: KMBC-2, bladder carcinoma; 144 hours
Protocol: as §1

MCAS = test: Cancer cell growth inhibition (CellTiter-Glo); assay type: cell-based; settings: ovarian mucinous cystadenocarcinoma, 144 hours
Protocol: as §1

MSTO-211H = test: Cancer cell growth inhibition (CellTiter-Glo); assay type: cell-based; settings: Homo sapiens, biphasic mesothelioma, 144 hours
Protocol: as §1

SCaBER = test: Cancer cell growth inhibition (CellTiter-Glo); assay type: cell-based; settings: Homo sapiens, bladder squamous cell carcinoma, 144 hours
Protocol: as §1

KMRC-3 = test: Cancer cell growth inhibition (CellTiter-Glo); assay type: cell-based; settings: KMRC-3, clear cell renal carcinoma; 144 hours
Protocol: as §1

SF126 = test: Cancer cell growth inhibition (CellTiter-Glo); assay type: cell-based; settings: Homo sapiens, SF-126; SF126, glioblastoma multiforme; 144 hours
Protocol: as §1

NCI-H2347 = test: Cancer cell growth inhibition (CellTiter-Glo); assay type: cell-based; settings: Homo sapiens; NCI-H2347, lung adenocarcinoma; 144 hours
Protocol: as §1

TUHR10TKB = test: Cancer cell growth inhibition (CellTiter-Glo); assay type: cell-based; settings: renal cell carcinoma, 144 hours
Protocol: as §1

COR-L105 = test: Cancer cell growth inhibition (CellTiter-Glo); assay type: cell-based; settings: Homo sapiens; COR-L105, lung adenocarcinoma; 144 hours
Protocol: as §1

KALS-1 = test: Cancer cell growth inhibition (CellTiter-Glo); assay type: cell-based; settings: Homo sapiens; KALS-1, glioblastoma; 144 hours
Protocol: as §1

TYK-nu = test: Cancer cell growth inhibition (CellTiter-Glo); assay type: cell-based; settings: high grade ovarian serious adenocarcinoma, 144 hours
Protocol: as §1

HCC827 = test: Cancer cell growth inhibition (CellTiter-Glo); assay type: cell-based; settings: Homo sapiens; HCC827, lung adenocarcinoma; 144 hours
Protocol: as §1

SK-LU-1 = test: Cancer cell growth inhibition (CellTiter-Glo); assay type: cell-based; settings: Homo sapiens; SK-LU-1, lung adenocarcinoma; 144 hours
Protocol: as §1

HPAF-II = test: Cancer cell growth inhibition (CellTiter-Glo); assay type: cell-based; settings: Homo sapiens, pancreatic adenocarcinoma, 144 hours
Protocol: as §1

NCI-H1437 = test: Cancer cell growth inhibition (CellTiter-Glo); assay type: cell-based; settings: Homo sapiens; NCI-H1437, lung adenocarcinoma; 144 hours
Protocol: as §1

NCI-H2066 = test: Cancer cell growth inhibition (CellTiter-Glo); assay type: cell-based; settings: NCI-H2066, squamous cell lung carcinoma; 144 hours
Protocol: as §1

HCC1954 = test: Cancer cell growth inhibition (CellTiter-Glo); assay type: cell-based; settings: Homo sapiens; HCC1954, ductal breast carcinoma; 144 hours
Protocol: as §1

NCI-H1373 = test: Cancer cell growth inhibition (CellTiter-Glo); assay type: cell-based; settings: Homo sapiens; NCI-H1373, lung adenocarcinoma; 144 hours
Protocol: as §1

NCI-H1944 = test: Cancer cell growth inhibition (CellTiter-Glo); assay type: cell-based; settings: Homo sapiens; NCI-H1944, lung adenocarcinoma; 144 hours
Protocol: as §1

Caki-1 = test: Cancer cell growth inhibition (CellTiter-Glo); assay type: cell-based; settings: Homo sapiens; Caki-1, clear cell renal cell carcinoma; 144 hours
Protocol: as §1

HT-1080 = test: Cancer cell growth inhibition (CellTiter-Glo); assay type: cell-based; settings: Homo sapiens; HT-1080, fibrosarcoma; 144 hours
Protocol: as §1

ACC-MESO-1 = test: Cancer cell growth inhibition (CellTiter-Glo); assay type: cell-based; settings: ACC-MESO-1, mesothelioma; 144 hours
Protocol: as §1

NCI-H1648 = test: Cancer cell growth inhibition (CellTiter-Glo); assay type: cell-based; settings: Homo sapiens; NCI-H1648, lung adenocarcinoma; 144 hours
Protocol: as §1

MDA-MB-468 = test: Cancer cell growth inhibition (CellTiter-Glo); assay type: cell-based; settings: Homo sapiens; MDA-MB-468, breast adenocarcinoma; 144 hours
Protocol: as §1

GCT = test: Cancer cell growth inhibition (CellTiter-Glo); assay type: cell-based; settings: Homo sapiens, undifferentiated pleiomorphic sarcoma, 144 hours
Protocol: as §1

Panc 03.27 = test: Cancer cell growth inhibition (CellTiter-Glo); assay type: cell-based; settings: Homo sapiens, PANC-03-27; Panc 03.27, pancreatic adenocarcinoma; 144 hours
Protocol: as §1

[2] = tested on: CT26 colon cancer syngeneic model; test: Tumor growth in murine CT26 colon cancer syngeneic model; assay type: in vivo, BALB/c mice; settings: BID 125-500 mg/kg or QD 500 mg/kg for 21 days; P<0.0001 vs vehicle (Day 16)
Protocol: For the CT26 study, BALB/c mice were inoculated subcutaneously in the right flank with CT26 cells for tumor development. After 5 days of cell inoculation, mice with 36-79 mm^3 tumors were randomized into treatment groups with mean tumor volumes of 54 mm^3. […] Tumor volumes were determined by manual calipers every 2-3 days. Mean tumor volume and SEM are plotted. BID: twice a day; PO: per oral administration; QD: once a day; SC: per subcutaneous administration. […] Statistical analysis for tumor growth inhibition (TGI) was performed when at least 8 of the 10 mice were remaining in the vehicle group (Day 16). Statistical significance is calculated using two-way ANOVA followed by Bonferroni post-tests in which the treatment groups were compared to vehicle control (**** P<0.0001).

GI50 (LN-18): ≥ 1 µM
GI50 (KMBC-2): ≥ 1 µM
GI50 (MCAS): ≥ 1 µM
GI50 (MSTO-211H): ≥ 1 µM
GI50 (SCaBER): ≥ 1 µM
GI50 (KMRC-3): ≥ 1 µM
GI50 (SF126): ≥ 1 µM
GI50 (NCI-H2347): < 0.1 µM
GI50 (TUHR10TKB): < 0.1 µM
GI50 (COR-L105): 0.1 to 1 µM
GI50 (KALS-1): ≥ 1 µM
GI50 (TYK-nu): < 0.1 µM
GI50 (HCC827): < 0.1 µM
GI50 (SK-LU-1): ≥ 1 µM
GI50 (HPAF-II): ≥ 1 µM
GI50 (NCI-H1437): ≥ 1 µM
GI50 (NCI-H2066): ≥ 1 µM
GI50 (HCC1954): ≥ 1 µM
GI50 (NCI-H1373): < 0.1 µM
GI50 (NCI-H1944): ≥ 1 µM
GI50 (Caki-1): < 0.1 µM
GI50 (HT-1080): ≥ 1 µM
GI50 (ACC-MESO-1): ≥ 1 µM
GI50 (NCI-H1648): ≥ 1 µM
GI50 (MDA-MB-468): ≥ 1 µM
GI50 (GCT): < 0.1 µM
GI50 (Panc 03.27): < 0.1 µM
SMILES: C[C@@H](COCCC(=O)N1CCN(c2ncc(C(F)(F)F)cn2)CC1)Nc1cn[nH]c(=O)c1C(F)(F)F [Compound 1, 5-[[(2S)-1-(3-oxo-3-[4-[5-(trifluoromethyl)pyrimidin-2-yl]piperazin-1-yl]propoxy)propan-2-yl]amino]-4-(trifluoromethyl)-2,3-dihydropyridazin-3-one]
Tumor growth (tumor volume) vs vehicle ([1]; 62.5, 125, 250, 500 mg/kg QD PO for 28 days, P<0.0001 vs vehicle): significantly reduces tumor growth
Tumor regression ([1]; 62.5 to 500 mg/kg once a day for 28 days, oral gavage, all dose levels): complete tumor regression
Tumor growth (tumor volume) vs vehicle [2]: significantly reduces tumor growth
